Measurements reported in patent EP4772505A1, “COMPOUND FOR DEGRADING ANDROGEN RECEPTOR AND MEDICAL USE THEREOF” (Ubix Therapeutics, Inc., priority 2023, dated 2025).

The molecules below were run against T1, Androgen Receptor (AR) (Homo sapiens, UniProt P10275, T878A) (assay: Measurement of AR protein degradation in LNCaP cells by Western blotting). Conditions: 10 nM compound, 20 hours, LNCaP cells; read-out: AR degradation in LNCaP cells (%).
T1 construct: endogenous in cells; host or cells: LNCaP
T1 sequence (P10275 1-920 T878A): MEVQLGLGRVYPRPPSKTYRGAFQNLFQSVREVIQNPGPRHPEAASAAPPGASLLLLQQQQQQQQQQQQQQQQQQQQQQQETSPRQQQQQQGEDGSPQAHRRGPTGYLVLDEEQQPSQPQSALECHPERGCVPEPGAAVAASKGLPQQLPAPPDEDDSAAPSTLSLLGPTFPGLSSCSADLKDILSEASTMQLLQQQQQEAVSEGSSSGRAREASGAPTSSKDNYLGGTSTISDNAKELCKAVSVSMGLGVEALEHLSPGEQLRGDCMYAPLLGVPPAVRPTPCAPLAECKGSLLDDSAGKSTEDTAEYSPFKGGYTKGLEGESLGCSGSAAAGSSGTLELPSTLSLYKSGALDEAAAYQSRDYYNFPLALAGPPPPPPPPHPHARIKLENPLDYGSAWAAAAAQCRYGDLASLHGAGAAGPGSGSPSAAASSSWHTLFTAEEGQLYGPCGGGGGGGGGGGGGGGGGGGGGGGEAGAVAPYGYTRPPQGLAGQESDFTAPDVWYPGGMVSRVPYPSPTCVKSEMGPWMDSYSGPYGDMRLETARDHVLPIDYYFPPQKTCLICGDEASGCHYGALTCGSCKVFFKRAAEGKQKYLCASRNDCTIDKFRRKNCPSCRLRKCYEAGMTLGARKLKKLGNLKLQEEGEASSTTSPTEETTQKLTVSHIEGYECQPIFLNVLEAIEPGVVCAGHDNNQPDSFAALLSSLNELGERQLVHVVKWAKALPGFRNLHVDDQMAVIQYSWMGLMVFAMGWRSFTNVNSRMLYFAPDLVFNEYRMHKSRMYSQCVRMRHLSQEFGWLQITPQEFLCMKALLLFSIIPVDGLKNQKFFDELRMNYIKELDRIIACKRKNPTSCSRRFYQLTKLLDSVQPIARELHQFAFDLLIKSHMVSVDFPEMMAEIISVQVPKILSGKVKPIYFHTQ
Assay type: cell-based
Protocol: The amount of AR protein present in LNCaP or VCaP cells was measured after treating them with the synthesized compound. The amount of AR protein was measured using Western blotting. The protocol for the experiments using LNCaP or VCaP cells was as follows.
[Culture] LNCaP cells were resuspended in RPMI1640 medium + HEPES (Hyclone, SH30255.01), 10% FBS (Hyclone, SV30207.02), and 1% Penicillin-streptomycin (Welgene, LS 202-02). 3 x 10^5 cells/mL were seeded in 12-well plates (1 mL per well) and cultured for 3 days. VCaP cells were resuspended in IMDM MEDIUM (Hyclone, SH30228.01), 20% FBS (Hyclone, SV30207.02), and 1% Penicillin-streptomycin (Welgene, LS 202-02), seeded at 9 x 10^5/mL in 1 mL per 12-well plate, and cultured for 3 days.
[Compound Treatment] 10 µL of 100x stock (e.g., 0.1, 1, 10 µM) compound solution at the final compound treatment concentration (e.g., 0.001, 0.01, 0.1 µM) was added to each well in 1 mL media, and cells were harvested after 20 hours. For DC50 measurement, 100x stock (0.01, 0.1, 1, 10, 100, 1000 µM) compound solutions at the final compound treatment concentration (0.0001, 0.001, 0.01, 0.1, 1, 10 µM) were used.
[Cell lysis] The cell pellet was suspended using 1% SDS lysis buffer (50 mM Tris, 1 mM EDTA, 1% SDS, pH 8.0, 0.5 mM PMSF, 1x Protease/Phosphatase inhibitor Cocktail (Cell Signaling Technology, 5872S)), and sonication (70% AMP, 10 cycles (30 sec ON/59 sec OFF)) was performed. After centrifugation at 4°C and 20,000 g for 20 minutes, the cell lysate was obtained and transferred to a new tube.
[Protein Quantification] A BCA protein assay (SMART™ BCA Protein Assay Kit, iNtRON Biotechnology, 21071) was performed using a 96-well microplate. 5 µL of cell lysate and 5 µL of 1% SDS lysis buffer were added to each well of the 96-well plate, followed by an additional 200 µL of BCA reagent (Reagent A: Reagent B = 50:1). The wells were incubated at 37°C for 30 minutes and cooled to room temperature for 10 minutes. After shaking for 10 seconds, the absorbance was measured at a wavelength of 562 nm. The unknown protein concentration was determined using a BSA standard curve (0, 0.125, 0.25, 0.5, 1, 2 mg/mL). Western blotting samples were prepared by mixing cell lysate, 1% SDS lysis buffer, 4x NuPAGE™ LDS Sample buffer (Invitrogen, NP0008), and 10X NuPAGE™ Sample Reducing Agent (Invitrogen, NP0009) and boiling at 70°C for 10 minutes.
[Electrophoresis] 10 µg of protein sample was loaded into each well of a NuPAGE™ 4 to 12%, Bis-Tris, 1.0 mm Mini Protein Gel, 15-well, 17-well, or 26-well (Invitrogen, NP0323BOX, NP0329BOX, or WG1403BOX) and electrophoresed for 40 minutes using NuPAGE™MES SDS Running Buffer (Invitrogen, NP0002) at 200 V (constant V).
[Transfer] Transfer was performed for 15 or 18 minutes using the electrophoresed gel and the Trans-Blot® Turbo™ Transfer Starter System (Bio-RAD, #17001918, Mini Nitrocellulose) at 1.3 A (constant A) and 25 V (limit V). To confirm protein transfer, 15 mL of Ponceau S solution (Sigma, P7170-1L) was used to stain for 1 minute, and then washed to check the degree of transfer.
[Blocking] The membrane for AR and GAPDH detection was blocked with 5% skim milk/0.2% TBST (Skim milk: BD, 232100/ 20X TBS: Biosesang, TR2008-100-00/ 10% Tween 20 Solution: Bio-RAD, #161-0781) for 45 minutes.
[Antibodies and Detection] Primary AR antibody (Androgen Receptor: CST, 5153S) was mixed with 5% skim milk/0.2% TBST at a ratio of 1:1,000 and reacted at room temperature for 3 hours or at 4°C overnight. Primary GAPDH antibody (CST, 2118S) was mixed with 5% skim milk/0.2% TBST at a ratio of 1:2,000 and reacted at room temperature for 3 hours or at 4°C overnight. Afterwards, TBST (0.2% Tween 20) was used for washing three times every 5 minutes. Secondary antibody to AR antibody, Anti-rabbit IgG, HRP-linked Antibody (CST, 7074S), was mixed with 5% skim milk/0.2% TBST at a ratio of 1:5,000 and reacted at room temperature for 45 minutes. […]

Dmax at 0.01 µM [%] | SMILES
91 | COc1cc(N2CCC(C(=O)Nc3ccc(OC4CCN(CC5CCN(c6ccc(NC7CCC(=O)NC7=O)cc6F)CC5)CC4)cn3)CC2)ccc1C#N (stereo not shown) [Example 13, 1-(4-cyano-3-methoxyphenyl)-N-(5-((1-((1-(4-((2,6-dioxopiperidin-3-yl)amino)-2-fluorophenyl)piperidin-4-yl)methyl)piperidin-4-yl)oxy)pyridin-2-yl)piperidine-4-carboxamide]
93 | COc1cc(N2CCC(C(=O)Nc3ccc(OC4CCN(CC5CCN(c6ccc(NC7CCC(=O)NC7=O)cc6F)CC5)CC4)nn3)CC2)ccc1C#N (stereo not shown) [Example 16, 1-(4-cyano-3-methoxyphenyl)-N-(6-((1-((1-(4-((2,6-dioxopiperidin-3-yl)amino)-2-fluorophenyl)piperidin-4-yl)methyl)piperidin-4-yl)oxy)pyridazin-3-yl)piperidine-4-carboxamide]

Same assay, conditions: 100 nM compound, 20 hours, LNCaP cells; read-out: AR degradation in LNCaP cells (%)

Dmax at 0.1 µM [%] | SMILES
99 | COc1cc(N2CCC(C(=O)Nc3ccc(OC4CCN(CC5CCN(c6ccc(NC7CCC(=O)NC7=O)cc6F)CC5)CC4)cn3)CC2)ccc1C#N (stereo not shown) [Example 13, 1-(4-cyano-3-methoxyphenyl)-N-(5-((1-((1-(4-((2,6-dioxopiperidin-3-yl)amino)-2-fluorophenyl)piperidin-4-yl)methyl)piperidin-4-yl)oxy)pyridin-2-yl)piperidine-4-carboxamide]
98 | COc1cc(N2CCC(C(=O)Nc3ccc(OC4CCN(CC5CCN(c6ccc(NC7CCC(=O)NC7=O)cc6F)CC5)CC4)nn3)CC2)ccc1C#N (stereo not shown) [Example 16, 1-(4-cyano-3-methoxyphenyl)-N-(6-((1-((1-(4-((2,6-dioxopiperidin-3-yl)amino)-2-fluorophenyl)piperidin-4-yl)methyl)piperidin-4-yl)oxy)pyridazin-3-yl)piperidine-4-carboxamide]

Same assay, conditions: LNCaP, 20 h, read-out: AR degradation in LNCaP cells (%)

SMILES | Dmax at 0.01 µM [%] | Dmax at 0.1 µM [%]
N#Cc1ccc(N2CCC(C(=O)Nc3ccc(OC4CCN(CC5CCN(c6ccc(N[C@H]7CCC(=O)NC7=O)cc6F)CC5)CC4)cn3)CC2)cc1Cl [Example 9, (S)-1-(3-chloro-4-cyanophenyl)-N-(5-((1-((1-(4-((2,6-dioxopiperidin-3-yl)amino)-2-fluorophenyl)piperidin-4-yl)methyl)piperidin-4-yl)oxy)pyridin-2-yl)piperidine-4-carboxamide] | 86 | 96
N#Cc1ccc(N2CCC(C(=O)Nc3ccc(OC4CCN(CC5CCN(c6ccc(NC7CCC(=O)NC7=O)cc6F)CC5)CC4)nn3)CC2)cc1C(F)(F)F (stereo not shown) [Example 7, 1-(4-cyano-3-(trifluoromethyl)phenyl)-N-(6-((1-((1-(4-((2,6-dioxopiperidin-3-yl)amino)-2-fluorophenyl)piperidin-4-yl)methyl)piperidin-4-yl)oxy)pyridazin-3-yl)piperidine-4-carboxamide] | 79 | 93
N#Cc1ccc(N2CCC(C(=O)Nc3ccc(OC4CCN(CC5CCN(c6ccc(N[C@H]7CCC(=O)NC7=O)cc6F)CC5)CC4)cn3)CC2)cc1C(F)(F)F [Example 2, (S)-1-(4-cyano-3-(trifluoromethyl)phenyl)-N-(5-((1-((1-(4-((2,6-dioxopiperidin-3-yl)amino)-2-fluorophenyl)piperidin-4-yl)methyl)piperidin-4-yl)oxy)pyridin-2-yl)piperidine-4-carboxamide] | 86 | 99
N#Cc1ccc(N2CCC(C(=O)Nc3ccc(OC4CCN(CC5CCN(c6ccc(NC7CCC(=O)NC7=O)cc6F)CC5)CC4)nn3)CC2)c(F)c1Cl (stereo not shown) [Example 15, 1-(3-chloro-4-cyano-2-fluorophenyl)-N-(6-((1-((1-(4-((2,6-dioxopiperidin-3-yl)amino)-2-fluorophenyl)piperidin-4-yl)methyl)piperidin-4-yl)oxy)pyridazin-3-yl)piperidine-4-carboxamide] | 88 | 90
N#Cc1ccc(N2CCC(C(=O)Nc3ccc(OC4CCN(CC5CCN(c6ccc(N[C@@H]7CCC(=O)NC7=O)cc6F)CC5)CC4)cn3)CC2)cc1Cl [Example 10, (R)-1-(3-chloro-4-cyanophenyl)-N-(5-((1-((1-(4-((2,6-dioxopiperidin-3-yl)amino)-2-fluorophenyl)piperidin-4-yl)methyl)piperidin-4-yl)oxy)pyridin-2-yl)piperidine-4-carboxamide] | 90 | 99
N#Cc1ccc(N2CCC(C(=O)Nc3ccc(OC4CCN(CC5CCN(c6ccc(NC7CCC(=O)NC7=O)cc6F)CC5)CC4)cn3)CC2)cc1Cl (stereo not shown) [Example 8, 1-(3-chloro-4-cyanophenyl)-N-(5-((1-((1-(4-((2,6-dioxopiperidin-3-yl)amino)-2-fluorophenyl)piperidin-4-yl)methyl)piperidin-4-yl)oxy)pyridin-2-yl)piperidine-4-carboxamide] | 91 | 98
N#Cc1ccc(N2CCC(C(=O)Nc3ccc(OC4CCN(CC5CCN(c6ccc(NC7CCC(=O)NC7=O)cc6F)CC5)CC4)cn3)CC2)cc1C(F)(F)F (stereo not shown) [Example 1, 1-(4-cyano-3-(trifluoromethyl)phenyl)-N-(5-((1-((1-(4-((2,6-dioxopiperidin-3-yl)amino)-2-fluorophenyl)piperidin-4-yl)methyl)piperidin-4-yl)oxy)pyridin-2-yl)piperidine-4-carboxamide] | 84 | 99
N#Cc1ccc(N2CCC(C(=O)Nc3ccc(OC4CCN(CC5CCN(c6ccc(NC7CCC(=O)NC7=O)cc6Cl)CC5)CC4)cn3)CC2)cc1C(F)(F)F (stereo not shown) [Example 17, N-(5-((1-((1-(2-chloro-4-((2,6-dioxopiperidin-3-yl)amino)phenyl)piperidin-4-yl)methyl)piperidin-4-yl)oxy)pyridin-2-yl)-1-(4-cyano-3-(trifluoromethyl)phenyl)piperidine-4-carboxamide] | 77 | 99
N#Cc1ccc(N2CCC(C(=O)Nc3ccc(OC4CCN(CC5CCN(c6ccc(NC7CCC(=O)NC7=O)cc6F)CC5)CC4)cn3)CC2)c(F)c1Cl (stereo not shown) [Example 12, 1-(3-chloro-4-cyano-2-fluorophenyl)-N-(5-((1-((1-(4-((2,6-dioxopiperidin-3-yl)amino)-2-fluorophenyl)piperidin-4-yl)methyl)piperidin-4-yl)oxy)pyridin-2-yl)piperidine-4-carboxamide] | 88 | 96
